According to patent US5326907A, “2-aminoethanesulfonic acid derivatives of 3,5-disubstituted-4-hydroxyphenolic thioethers” (G. D. Searle & Co., priority 1992, dated 1994):
Counter-ions that a name gives are not always drawn.

Key:
5-lipoxygenase = target: T1, 5-lipoxygenase (Rattus norvegicus, UniProt P12527); assay: Inhibition of 5-lipoxygenase, in vitro; format: biochemical; conditions: 100,000×g supernatant of RBL-1 homogenate, [1-14C]-arachidonic acid and Ca++; average; read-out: average IC50, inhibition of 5-lipoxygenase (5-HETE synthesis)
T1 construct: supernatant fraction of Rat Basophilic Leukemia Cell Homogenate (RBL-1) serves as a 5-lipoxygenase enzyme source; endogenous in cells; host or cells: RBL-1 (rat basophilic leukemia) cells, 100,000×g supernatant of homogenate
T1 sequence (P12527 1-673): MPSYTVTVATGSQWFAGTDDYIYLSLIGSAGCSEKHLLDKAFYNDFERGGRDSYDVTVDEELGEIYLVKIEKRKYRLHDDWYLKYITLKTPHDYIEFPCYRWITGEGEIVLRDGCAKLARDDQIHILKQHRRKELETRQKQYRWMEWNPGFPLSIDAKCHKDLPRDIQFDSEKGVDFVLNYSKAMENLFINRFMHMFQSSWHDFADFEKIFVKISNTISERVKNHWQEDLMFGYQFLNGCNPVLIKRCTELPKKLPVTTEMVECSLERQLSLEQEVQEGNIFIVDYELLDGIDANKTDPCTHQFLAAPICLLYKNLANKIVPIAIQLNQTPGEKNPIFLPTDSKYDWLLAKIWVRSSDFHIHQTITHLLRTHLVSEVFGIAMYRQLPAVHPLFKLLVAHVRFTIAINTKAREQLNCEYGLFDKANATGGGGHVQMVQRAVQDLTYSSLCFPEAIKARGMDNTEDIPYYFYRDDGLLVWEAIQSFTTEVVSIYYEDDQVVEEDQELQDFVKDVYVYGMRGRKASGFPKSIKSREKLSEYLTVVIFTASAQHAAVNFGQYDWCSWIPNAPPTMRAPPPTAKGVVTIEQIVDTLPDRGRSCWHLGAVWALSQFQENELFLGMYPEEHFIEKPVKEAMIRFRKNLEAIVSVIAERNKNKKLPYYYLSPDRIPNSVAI
Method: The compounds of the invention are evaluated with respect to 5-lipoxygenaseinhibition according to the following assay procedure.
The 100,000×g supernatant fraction of Rat Basophilic Leukemia Cell Homogenate (RBL-1) serves as a 5-lipoxygenase enzyme source. The enzyme is incubated with [1-^14 C)-arachidonic acid and Ca++ in the presence and absence of test compound. The product of 5-lipoxygenase, 5-hydroxyeicosa-tetraenoic acid (5-HETE), is separated by thin-layer chromatography and measured by radioactivity. A compound inhibiting 5-HETE synthesis by 30% or more is considered active at that concentration.

[1] = test system: superoxide generation by FMLP-stimulated human neutrophils; assay: Human neutrophil superoxide generation (FMLP-stimulated, cytochrome C reduction); format: cell-based; conditions: pH 7.2, 37° C., preincubated 3 minutes, average, read-out: average IC50, inhibition of superoxide generation
Method: The compounds of the invention are evaluated with respect to superoxide modulating activity according to the following assay procedure:
Superoxide generation by formyl-methionyl-leucyl-phenylalanine (FMLP)-stimulated neutrophils was quantitated by the reduction of cytochrome C (Badwey, J. A., Curnutte, J. T. and Karnovsky, M. L., cis-Polyunsaturated fatty acids induce high levels of superoxide production by human neutrophils. J. Biol. Chem. 256:12640-12643, 1981.) To 5 million neutrophils in 2.85 ml of Krebs-Ringer phosphate buffer, pH 7.2, 50 ul of inhibitor (in 10% DMSO/buffer), and 50 ul ferricytochrome C (5 mM, stock) were added and preincubated for 3 minutes at 37° C. Absorption measurements at 550 nm were recorded at start of preincubation. Fifty ul FMLP (6 uM, stock) was added to initiate reaction. A plateau was reached within 3 minutes and this reading minus the initial reading (before addition of FMLP) was used to calculate nanomoles of superoxide generated based on a molar extinction coefficient of 2.1×10^4 cm^-1 mole^-1.
Human neutrophils were isolated from freshly drawn blood of healthy donors. Two ml of 5% dextran (MW 200,000-300,000) in saline was added to 10 ml aliquots of blood, mixed and placed upright for 45 min. at 37° C. Approx. […] The red cell lysing procedure was repeated, the cells suspended in appropriate buffer (depending on assay) and counted.

[2] = compared with histamine; background information; cited from earlier work

IC50 (5-lipoxygenase) [µM] | IC50 [1] [µM] | Compound | potency in causing long lasting bronchoconstricting effects relative to histamine [2]
3.25 | 87.5 | C[C@H](Sc1cc(C(C)(C)C)c(O)c(C(C)(C)C)c1)[C@@H](C)OCC(=O)NCCS(=O)(=O)O (relative stereo) [Example 5, 2-[[[2S*-[[3,5-bis(1,1-dimethylethyl)-4-hydroxyphenyl]thio]-1R*-methylpropoxy]acetyl]amino]ethanesulfonic acid, potassium salt] | 
 |  | CCCCC/C=C\C\C=C/C=C/C=C/[C@@H](SC[C@H](NC(=O)CC[C@H](N)C(=O)O)C(=O)NCC(=O)O)[C@@H](O)CCCC(=O)O [LTC4] | at least 100 times
